US4528393A, “Derivatives having expectorant activity, the procedure for their preparation and the pharmaceutical compositions which contain them” (Magis Farmaceutici S.R.L., priority 1983, dated 1985)

Columns and labels:
[1] = Acute toxicity in the guinea pig (DL50, Litchfield and Wilcoxon method); settings: in vivo
Procedure: (§1) where R is as defined above, in the presence of an alkaline carbonate and of a catalyst, to obtain the corresponding formula (I) compound, as defined above, which, optionally, is salified. The new formula (I) compounds and their pharmaceutically acceptable salts, which form the object of this invention, have expectorant characteristics which are very useful for therapeutic applications. […] The peak level in the blood is reached 20-40 minutes after oral administration. This determines higher concentrations of active principle. With dogs, the half-life of the new derivatives in the blood is from 25-30 hours. It is also to be underlined that the new compounds are stable in both the stomach and the intestinal tract, hydrolizing after being absorbed. The complete reliability of the new compounds was determined by evaluating their acute toxicity. Acute toxicity was studies in the mouse, rat and guinea pig, comparing with ambroxol hydrochloride. The DL50 values were calculated by following the Litchfield and Wilcoxon method (Pharm. Exp. Therap. 1949, 96,99).

mouse = assay: Acute toxicity in the mouse (DL50, Litchfield and Wilcoxon method); type: in vivo; settings: os
Procedure: as §1

[2] = as above; type: in vivo; settings: in vivo
Procedure: as §1

[3] = Acute toxicity in the rat (DL50, Litchfield and Wilcoxon method); settings: in vivo
Procedure: as §1

`Nc1c(Br)cc(Br)cc1CN[C@H]1CC[C@H](O)CC1` [Ambroxol Hydrochlorate, N-(2-amino-3,5-dibromobenzyl)-trans-4-amino-cyclohexanol, reference compound] gave an LD50 ([1]; ip) of 280 mg/kg, an LD50 ([1]; po, os) of 1180 mg/kg and a DL50 (mouse) of 2750 mg/kg. The LD50 ([2]; ip) was 268 mg/kg, the LD50 ([2]; iv) was 138 mg/kg and the LD50 ([3]; ip) was 380 mg/kg. For the same compound, the LD50 ([3]; po, os) was 13400 mg/kg.
With `COc1ccccc1OCC(=O)O[C@H]1CC[C@H](NCc2cc(Br)cc(Br)c2N)CC1` [E/6001, N-(2-amino-3,5-dibromobenzyl)-trans-4-amino-1-(guaiacolglycolyl)-cyclohexane] the LD50 ([1]; ip) was 390 mg/kg, the LD50 ([1]; po, os) was 1650 mg/kg and the LD50 ([2]; ip) was 375 mg/kg. It also gave an LD50 ([2]; iv) of 194 mg/kg, an LD50 ([2]; po, os) of 3850 mg/kg and an LD50 ([3]; ip) of 532 mg/kg. It also gave an LD50 ([3]; po, os) of 18700 mg/kg.
Compound `COc1cc(C)ccc1OCC(=O)O[C@H]1CC[C@H](NCc2cc(Br)cc(Br)c2N)CC1` [E/6002] has an LD50 ([1]; ip) of 400 mg/kg, an LD50 ([1]; po, os) of 1700 mg/kg and an LD50 ([2]; ip) of 390 mg/kg. The LD50 ([2]; iv) was 201 mg/kg, the LD50 ([2]; po, os) was 4000 mg/kg and the LD50 ([3]; ip) was 550 mg/kg. For the same compound, the LD50 ([3]; po, os) was 19600 mg/kg.
`Cc1cccc(OCC(=O)O[C@H]2CC[C@H](NCc3cc(Br)cc(Br)c3N)CC2)c1` [E/6003, N-(2-amino-3,5-dibromobenzyl)-trans-4-amino-1-(m-cresolglycolyl)cyclohexane] gave an LD50 ([1]; ip) of 380 mg/kg, an LD50 ([1]; po, os) of 1600 mg/kg and an LD50 ([2]; ip) of 360 mg/kg. The LD50 ([2]; iv) was 187 mg/kg, the LD50 ([2]; po, os) was 3700 mg/kg and the LD50 ([3]; ip) was 510 mg/kg. It also gave an LD50 ([3]; po, os) of 18000 mg/kg.
With `Cc1ccccc1OCC(=O)O[C@H]1CC[C@H](NCc2cc(Br)cc(Br)c2N)CC1` [E/6004] the LD50 ([1]; ip) was 375 mg/kg, the LD50 ([1]; po, os) was 1610 mg/kg and the LD50 ([2]; ip) was 365 mg/kg. For the same compound, the LD50 ([2]; iv) was 187 mg/kg, the LD50 ([2]; po, os) was 3700 mg/kg and the LD50 ([3]; ip) was 500 mg/kg. For the same compound, the LD50 ([3]; po, os) was 18000 mg/kg.
Work on `Cc1ccc(OCC(=O)O[C@H]2CC[C@H](NCc3cc(Br)cc(Br)c3N)CC2)cc1` [E/6005] yielded an LD50 ([1]; ip) of 380 mg/kg, an LD50 ([1]; po, os) of 1600 mg/kg and an LD50 ([2]; ip) of 360 mg/kg. For the same compound, the LD50 ([2]; iv) was 180 mg/kg, the LD50 ([2]; po, os) was 3700 mg/kg and the LD50 ([3]; ip) was 500 mg/kg. It also gave an LD50 ([3]; po, os) of 17800 mg/kg.
Work on `Cc1ccc(C(C)C)c(OCC(=O)O[C@H]2CC[C@H](NCc3cc(Br)cc(Br)c3N)CC2)c1` [E/6006, N-(2-amino-3,5-dibromobenzyl)-trans-4-amino-1-(thymolglycolyl)cyclohexane] yielded an LD50 ([1]; ip) of 400 mg/kg, an LD50 ([1]; po, os) of 1680 mg/kg and an LD50 ([2]; ip) of 380 mg/kg. It also gave an LD50 ([2]; iv) of 197 mg/kg, an LD50 ([2]; po, os) of 3900 mg/kg and an LD50 ([3]; ip) of 540 mg/kg. The LD50 ([3]; po, os) was 19000 mg/kg.
Work on `Cc1ccc(C(C)C)cc1OCC(=O)O[C@H]1CC[C@H](NCc2cc(Br)cc(Br)c2N)CC1` [E/6007, N-(2-amino-3,5-dibromobenzyl)-trans-4-amino-1-(carvacrolglycolyl)cyclohexane] yielded an LD50 ([1]; ip) of 410 mg/kg, an LD50 ([1]; po, os) of 1700 mg/kg and an LD50 ([2]; ip) of 390 mg/kg. It also gave an LD50 ([2]; iv) of 190 mg/kg, an LD50 ([2]; po, os) of 3900 mg/kg and an LD50 ([3]; ip) of 530 mg/kg. It also gave an LD50 ([3]; po, os) of 18500 mg/kg.
